The text below walks through data of publication PMC4000009, “Ardisia crispa roots inhibit cyclooxygenase and suppress angiogenesis” (BMC Complementary and Alternative Medicine, 2014).

For experiment [1], the system named is VEGF-induced blood vessel formation. Put plainly: Mouse sponge implantation assay (VEGF-impregnated gelatin sponge, mean vascular density). Format: in vivo. The settings on record: 100 ng treatment in VEGF sponge, 14 days; relative to VEGF group.
Procedure: Prior to experimentation, absorbable gelatin sponge was cut (5 mm × 8 mm) and hydrated in sterile PBS overnight at 4°C. […] The sponges were allowed to solidify at room temperature for one hour before commencement of the experiment. Mice were anesthetized with Avertin (10 mL/kg) prior to experimentation. Hardened gel piece was inserted into incised subcutaneous pocket created laterally. The animals were allowed to recuperate for 14 days. After that, the animals were euthanized and the gel piece was harvested and rinsed with normal saline.
The sponge samples were fixed in 10% formalin (v/v) for 7 days and subjected to histopathological analysis. The number of vessels was counted in 15 consecutive fields using a 20X objective and the mean MVD was calculated [19].
In mouse sponge implantation assay, statistical analysis was performed using SPSS version 16. One-way Analysis of Variance (ANOVA) with post-hoc test of Least Significant Difference (LSD) were utilised with P < 0.05 was considered to be statistically significant. The results were reported as mean ± SEM. […] Data were reported as mean ± SEM.
In experiment [2] the target is T1, Soybean lipoxygenase type I-B (Glycine max, UniProt P08170).
T1 construct: purchased Sigma Aldrich
T1 sequence (P08170 1-839): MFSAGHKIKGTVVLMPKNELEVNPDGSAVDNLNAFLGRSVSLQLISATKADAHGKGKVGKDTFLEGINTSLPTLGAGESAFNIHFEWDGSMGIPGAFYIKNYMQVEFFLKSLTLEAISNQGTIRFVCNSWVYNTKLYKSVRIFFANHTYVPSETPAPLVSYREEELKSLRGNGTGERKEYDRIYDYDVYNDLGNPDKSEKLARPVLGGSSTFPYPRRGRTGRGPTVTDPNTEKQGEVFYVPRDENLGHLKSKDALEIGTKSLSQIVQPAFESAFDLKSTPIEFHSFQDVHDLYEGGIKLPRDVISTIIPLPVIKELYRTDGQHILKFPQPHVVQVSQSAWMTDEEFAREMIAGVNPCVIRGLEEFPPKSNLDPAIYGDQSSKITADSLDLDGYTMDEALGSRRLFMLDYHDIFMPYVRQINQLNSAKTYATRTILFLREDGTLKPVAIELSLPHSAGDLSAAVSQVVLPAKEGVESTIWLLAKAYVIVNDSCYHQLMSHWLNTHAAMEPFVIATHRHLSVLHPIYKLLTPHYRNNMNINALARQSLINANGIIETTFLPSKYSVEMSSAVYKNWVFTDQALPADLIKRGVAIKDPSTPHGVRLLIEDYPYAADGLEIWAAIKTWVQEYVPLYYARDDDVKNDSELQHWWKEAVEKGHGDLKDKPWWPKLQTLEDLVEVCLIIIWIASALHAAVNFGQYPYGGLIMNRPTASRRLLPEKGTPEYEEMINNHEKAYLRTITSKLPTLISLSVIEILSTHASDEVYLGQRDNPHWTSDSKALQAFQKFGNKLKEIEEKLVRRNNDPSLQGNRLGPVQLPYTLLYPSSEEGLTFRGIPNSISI
Put plainly: Soy lipoxygenase inhibitory assay. It counts as biochemical. Here is the method:
Soy lipoxygenase inhibitory assay was performed according to the method proposed by Azhar-Ul-Haq et al.. Rutin was used as positive control. 160 μl of 100 mM sodium phosphate buffer (pH8.0), 10 μl of ACRH and QRF were dissolved in ethanol in different concentrations (200 μg/mL, 100 μg/mL, 50 μg/mL, 25 μg/mL, and 12.5 μg/mL) and 20 μl of lipoxygenase solution were mixed in the well and incubated for 10 mins at room temperature. The reaction was then initiated by adding 10 μl of linoleic solution and the absorbance was determined at 234 nm after 6 minutes. All concentrations were performed in triplicate. The IC50 value was then calculated.
(§1) In mouse sponge implantation assay, statistical analysis was performed using SPSS version 16. One-way Analysis of Variance (ANOVA) with post-hoc test of Least Significant Difference (LSD) were utilised with P < 0.05 was considered to be statistically significant. The results were reported as mean ± SEM. For in vitro studies, average of the results obtained was determined in order to construct a graph, whereby IC50 of each groups were identified, respectively. IC50 was calculated using GraphPad Prism 5 software. Data were reported as mean ± SEM.

A further experiment concerns the target T2, COX-1 (Ovis aries, UniProt P05979).
T2 construct: purchased Cayman 760111
T2 sequence (P05979 25-600): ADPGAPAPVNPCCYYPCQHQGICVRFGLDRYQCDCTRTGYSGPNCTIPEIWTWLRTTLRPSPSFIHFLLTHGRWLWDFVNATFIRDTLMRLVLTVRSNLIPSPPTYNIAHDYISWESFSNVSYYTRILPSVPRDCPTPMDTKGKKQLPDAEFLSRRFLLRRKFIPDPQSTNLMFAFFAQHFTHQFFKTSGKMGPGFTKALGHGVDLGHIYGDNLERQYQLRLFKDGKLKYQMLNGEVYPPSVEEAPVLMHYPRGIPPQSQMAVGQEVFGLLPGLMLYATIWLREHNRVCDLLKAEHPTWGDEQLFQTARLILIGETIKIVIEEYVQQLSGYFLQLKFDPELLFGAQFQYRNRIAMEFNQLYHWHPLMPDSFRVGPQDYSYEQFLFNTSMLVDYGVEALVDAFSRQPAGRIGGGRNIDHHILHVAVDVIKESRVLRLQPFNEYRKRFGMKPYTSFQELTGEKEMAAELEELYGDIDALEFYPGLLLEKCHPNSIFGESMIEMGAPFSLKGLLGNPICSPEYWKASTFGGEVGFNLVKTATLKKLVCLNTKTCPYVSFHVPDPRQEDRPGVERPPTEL
Nature of the experiment: Colorimetric COX (ovine) inhibitor screening assay, COX-1. Format: biochemical. The settings on record: n = 3. Here is the method: (§2) Cyclooxygenase activity assay was performed according to Yang et al., with slight modification. […] The assay was conducted by monitoring the appearance of oxidized N, N, N’, N’- tetramethyl-p-phenediamine (TMPD) at […]. […] The plate was shaken for a few seconds and incubated for 5 min at 25°C. 20 μl of the colorimetric substrate solution (TMPD) was added to all of the wells. 20 μl of arachidonic acid was added to all the wells. The plate was shaken for a few seconds and incubated for 5 min at 25°C. The absorbance was measured at 590 nm using a microplate reader. Average absorbance was calculated for all the samples (n = 3) in order to determine the percentage of inhibition. The calculation of inhibitory percentage is as portrayed below:
(§3) %inhibition=100%initialactivity‒inhibitorwells/100%initialactivity×100
as §1

In a further experiment the target is T3, COX-2 (Ovis aries, UniProt P79208).
T3 construct: purchased Cayman 760111
T3 sequence (P79208 17-603): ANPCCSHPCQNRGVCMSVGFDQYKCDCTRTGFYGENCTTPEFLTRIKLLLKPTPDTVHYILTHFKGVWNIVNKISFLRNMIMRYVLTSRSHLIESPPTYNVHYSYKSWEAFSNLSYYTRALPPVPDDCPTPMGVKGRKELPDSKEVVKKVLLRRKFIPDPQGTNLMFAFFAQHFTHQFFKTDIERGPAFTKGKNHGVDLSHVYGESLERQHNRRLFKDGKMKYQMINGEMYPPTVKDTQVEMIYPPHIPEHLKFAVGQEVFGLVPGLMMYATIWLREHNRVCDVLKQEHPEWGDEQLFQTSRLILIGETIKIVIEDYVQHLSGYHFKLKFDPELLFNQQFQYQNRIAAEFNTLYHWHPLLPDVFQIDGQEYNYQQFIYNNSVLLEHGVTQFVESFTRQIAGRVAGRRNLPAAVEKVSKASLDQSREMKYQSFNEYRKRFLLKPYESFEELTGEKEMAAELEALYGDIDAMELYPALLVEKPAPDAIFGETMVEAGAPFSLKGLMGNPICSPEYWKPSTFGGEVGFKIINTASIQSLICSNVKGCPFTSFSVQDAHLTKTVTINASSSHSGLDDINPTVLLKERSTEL
Nature of the experiment: Colorimetric COX (ovine) inhibitor screening assay, COX-2. It counts as biochemical. The conditions noted are these: read-out: Percentage of COX inhibition (%) COX-2. Here is the method:
as §2, §3, §1

In the case of `CC1(C)Cc2c(-c3ccccc3)c(-c3ccc(Cl)cc3)c(CC(=O)O)n2C1` [licofelone], the “% inhibition (of MVD)” value in experiment [1] was found to be 67.14%.
As a reminder, the IC50 is the midpoint of a concentration-inhibition curve. Low values mean greater potency, high ones weaker potency. As a reminder, the inhibition is the share of the control response that was lost under treatment. The compound `CC(=O)Oc1ccccc1C(=O)O` [Aspirin] showed an IC50 in experiment [2] of 763 µM. The “Percentage of COX inhibition (%) COX-1” value on COX-1 (12.5 μg/ml) is listed as 27.778 ± 0.505%. Besides, the “Percentage of COX inhibition (%) COX-1” value on COX-1 (25 μg/ml) was 36.027 ± 1.347%. For the same compound, at COX-1 (50 μg/ml), the “Percentage of COX inhibition (%) COX-1” value was found to be 37.879 ± 0.842%. The “Percentage of COX inhibition (%) COX-1” value at COX-1 (100 μg/ml) came to 40.067 ± 1.347%. The “Percentage of COX inhibition (%) COX-1” value on COX-1 (200 μg/ml) was 46.465 ± 0.505%. On COX-2, the inhibition at 12.5 µg/mL was 33.9 ± 1.07%, the inhibition at 25 µg/mL came out at 51.38 ± 0.154%, the inhibition at 50 µg/mL turned out to be 54.29 ± 0.307% and the inhibition at 100 µg/mL was determined as 59.05 ± 0.153%. Also, the inhibition at 200 µg/mL at COX-2 was found to be 62.42 ± 0.154%.
Turning to `C[C@@H]1O[C@@H](OC[C@H]2O[C@@H](Oc3c(-c4ccc(O)c(O)c4)oc4cc(O)cc(O)c4c3=O)[C@H](O)[C@@H](O)[C@@H]2O)[C@H](O)[C@H](O)[C@H]1O` [Rutin], in experiment [2], the IC50 is 72.7 µM.
